Results reported in publication PMC6658617, “Structure-Guided Identification of Resistance Breaking Antimalarial N‑Myristoyltransferase Inhibitors” (Cell Chemical Biology, 2019).
Like-named read-outs stand apart in the source and are kept apart here.

Legend:
[1] = system: P. falciparum 3D7 parasites; set-up: method as in Wright et al., 2014; conditions: four times the EC50 concentration from beginning of 48-h cycle, ref Wright et al., 2014; cited from earlier work
[2] = system: P. falciparum 3D7 parasites (PfNMT[WT]); assay: microbe, parasite or virus in culture; format: cell-based; conditions: for EC50: Plasmodium falciparum
[3] = system: P. falciparum 3D7 PfNMT[G386E] clones; assay: microbe, parasite or virus in culture; format: cell-based; conditions: for EC50: Plasmodium falciparum
WT 3D7 parasites = assay: Flow cytometry of Hoechst-stained parasites (number of nuclei); format: cell-based, P. falciparum; conditions: 140 nM for 45 h from ring stage
Description: Synchronized parasites were incubated with DMSO or NMTi and samples were fixed in 2% PFA, 0.2 % glutaraldehyde for 1 hour at 45 h PI. Subsequently samples were washed in PBS and labelled with 1:500 of 10 mg/mL Hoechst 33342 for 10 min with a subsequent wash in PBS. For analysis, a Flow Cytometry CL1 Fortessa D Analyzer from BD with FACSDiva software v8.0.1 was used with the 450-50 filter counting 50,000 RBC per sample. Data were analyzed using FlowJo LLC 2006-2015 to determine the median fluorescence intensity (MFI) of each sample after gating out the RBC population using an RBC only sample as a control. The MFI of each sample was divided by the MFI of a control sample of synchronized rings with a known MFI of one nucleus.

PvNMT[G386E] [4] = target: T1, PvNMT[G386E] (Plasmodium vivax, UniProt A5K1A2, G386E); assay: Thermal shift assay; format: binding, P. vivax; conditions: 5 μM compound
T1 sequence (A5K1A2 27-410 G386E): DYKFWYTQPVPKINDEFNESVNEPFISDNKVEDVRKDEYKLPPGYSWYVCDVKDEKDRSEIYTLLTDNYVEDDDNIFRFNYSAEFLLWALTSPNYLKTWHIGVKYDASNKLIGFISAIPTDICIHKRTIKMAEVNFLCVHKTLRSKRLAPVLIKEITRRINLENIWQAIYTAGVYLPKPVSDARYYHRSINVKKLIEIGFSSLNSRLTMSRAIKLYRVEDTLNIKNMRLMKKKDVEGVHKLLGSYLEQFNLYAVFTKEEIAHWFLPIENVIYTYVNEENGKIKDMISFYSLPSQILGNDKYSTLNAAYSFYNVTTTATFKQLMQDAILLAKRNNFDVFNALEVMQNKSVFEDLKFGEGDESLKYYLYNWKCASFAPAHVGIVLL

PvNMT[WT] [5] = target: T2, PvNMT[WT] (Plasmodium vivax, UniProt A5K1A2); format: binding; conditions: SPR sensorgrams
T2 construct: hexaHis (3C protease-cleavable) (N); made in house; host or cells: E. coli Rosetta-gami (DE3), pET11a
T2 sequence (A5K1A2 entry or part of it): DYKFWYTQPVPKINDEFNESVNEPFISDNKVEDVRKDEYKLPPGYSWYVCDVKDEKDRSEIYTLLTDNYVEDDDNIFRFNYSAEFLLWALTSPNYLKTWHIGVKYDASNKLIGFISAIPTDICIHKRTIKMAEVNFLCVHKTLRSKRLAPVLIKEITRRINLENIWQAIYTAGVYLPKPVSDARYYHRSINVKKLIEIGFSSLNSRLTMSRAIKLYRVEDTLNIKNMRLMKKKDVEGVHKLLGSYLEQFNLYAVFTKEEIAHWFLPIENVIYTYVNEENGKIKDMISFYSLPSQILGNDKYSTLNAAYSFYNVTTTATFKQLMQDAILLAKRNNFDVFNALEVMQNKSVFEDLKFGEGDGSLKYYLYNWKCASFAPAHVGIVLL

PvNMT[G386E] [6] = target: T1, PvNMT[G386E]; assay: biochemical; format: biochemical, P. vivax
[7] = system: N-myristoylation in PfNMT[G386E] parasite clones; format: cell-based; conditions: 140 nM, 36–45 h post-invasion
HsNMT2 = HsNMT2 (Homo sapiens, UniProt O60551); format: biochemical; conditions: selectivity, CPM assay
HsNMT2, sequence (O60551 whole entry): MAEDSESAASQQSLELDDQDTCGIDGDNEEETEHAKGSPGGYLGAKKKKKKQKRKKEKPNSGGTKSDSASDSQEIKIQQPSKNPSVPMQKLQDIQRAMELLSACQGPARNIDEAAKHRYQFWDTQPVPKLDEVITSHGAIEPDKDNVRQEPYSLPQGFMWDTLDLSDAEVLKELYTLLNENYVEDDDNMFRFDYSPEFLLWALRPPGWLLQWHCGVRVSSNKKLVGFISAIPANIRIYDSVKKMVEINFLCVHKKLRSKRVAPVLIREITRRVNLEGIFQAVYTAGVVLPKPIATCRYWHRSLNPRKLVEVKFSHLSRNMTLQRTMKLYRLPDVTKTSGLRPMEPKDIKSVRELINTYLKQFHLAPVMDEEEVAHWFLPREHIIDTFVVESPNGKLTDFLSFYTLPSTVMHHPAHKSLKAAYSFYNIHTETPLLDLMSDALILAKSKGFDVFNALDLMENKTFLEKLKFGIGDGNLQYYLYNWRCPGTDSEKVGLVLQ

PfNMT[G386E] parasites = assay: microbe, parasite or virus in culture; format: cell-based
[8] = system: N-myristoylation in WT 3D7 parasites; assay: YnMyr metabolic labelling of NMT substrates; format: cell-based, P. falciparum; conditions: 140 nM, 36–45 h post-invasion
Description: Synchronized populations of stage-specific parasites were labelled with 25 μM of YnMyr for the specified length of time. Parasites were then lysed in 0.15 % saponin for 10 min on ice. The pellet was washed until the supernatant was colorless and then stored at -80°C. Thawed parasite pellets were extracted in 1 % Triton X-100, 0.1 % SDS in PBS on ice for 20 min with 1 min sonication. The protein concentration of the lysate was measured by BCA assay and adjusted to 1 mg/mL with PBS. The capture reagent was ‘clicked’ (100 μM capture reagent AzRB2, 1 mM CuSO4, 1 mM TCEP, 100 μM TBTA), the reaction was quenched with EDTA, and then precipitated proteins were washed with ice cold methanol as described previously ([Heal et al., 2011], [Wright et al., 2015]). Proteins were re-dissolved in 2 % SDS, 10 mM DTT, in PBS at 1 mg/mL and heated for 7 min at 95°C in sample loading buffer prior to SDS-PAGE.
Following the click reaction, the protein solution in PBS containing 2 % SDS, 10 mM DTT was treated with 0.2 M NaOH for 1 h at room temperature with vortexing. Samples were neutralized with an equivalent volume and concentration of HCl and diluted with PBS to 1 mg/mL prior to gel analysis.

PvNMT[G386E] [9] = target: T1, PvNMT[G386E]; format: binding, P. vivax
[10] = system: P. falciparum 3D7 parasites; assay: Parasite development and GAP45 immunofluorescence at four times EC50; format: cell-based; conditions: at four times the EC50 value (140 nM), 45 h PI
Description: For IFA, slides were air dried, fixed in 4 % paraformaldehyde (PFA) in PBS for 10–20 min, permeabilized in 0.1 % Triton X-100 in PBS for 10 min, and blocked with 3 % BSA in PBS for at least 30 min at 4°C. GAP45 detection was achieved using a primary rabbit anti-GAP45-antibody ([Rees-Channer et al., 2006]). Slides were mounted in ProLong® Gold Antifade mounting medium containing DAPI (4’,6-diamidino-2-phenylindole), and viewed on a Nikon Eclipse Ni-E imaging system with a Hamamatsu Orca-flash 4.0 digital camera and a Plan apo λ 100x/1.45 oil immersion objective. Images were captured using Nikon’s NIS-Elements imaging software generating Z-stack images of individual parasites, using deconvolution options and exporting the image as a tiff file, which was further edited using Adobe Photoshop.

PvNMT[WT] [11] = target: T2, PvNMT[WT]; assay: biochemical; format: binding; conditions: 5 μM compound, absence of MyrCoA; read-out: thermal stabilization (ΔTm) of PvNMT[WT]
[12] = system: P. falciparum Dd2 parental line; assay: microbe, parasite or virus in culture; format: cell-based; conditions: EC50 after 72 h (n = 3)
[13] = system: IMP-1002-resistant P. falciparum Dd2 parasites (uncloned population and clones, NMT G386E); assay: microbe, parasite or virus in culture; format: cell-based; conditions: for EC50: Plasmodium falciparum, DD2, 72 h
HsNMT1 = HsNMT1 (Homo sapiens, UniProt P30419); format: biochemical; conditions: selectivity, CPM assay
HsNMT1, sequence (P30419 whole entry): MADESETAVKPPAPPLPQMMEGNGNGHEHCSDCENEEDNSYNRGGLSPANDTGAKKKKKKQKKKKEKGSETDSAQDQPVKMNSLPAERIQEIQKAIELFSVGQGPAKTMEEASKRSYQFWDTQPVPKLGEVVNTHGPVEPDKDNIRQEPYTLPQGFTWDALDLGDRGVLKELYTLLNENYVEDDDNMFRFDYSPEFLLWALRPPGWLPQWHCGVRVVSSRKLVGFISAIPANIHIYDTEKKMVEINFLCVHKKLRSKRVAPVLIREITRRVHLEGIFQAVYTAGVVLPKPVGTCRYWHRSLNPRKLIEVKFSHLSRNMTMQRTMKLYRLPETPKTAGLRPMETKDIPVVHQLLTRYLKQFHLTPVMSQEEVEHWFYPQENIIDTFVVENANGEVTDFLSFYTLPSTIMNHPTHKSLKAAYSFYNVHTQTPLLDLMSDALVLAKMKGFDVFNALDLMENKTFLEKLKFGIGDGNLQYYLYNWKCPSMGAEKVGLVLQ

[14] = 3D7, read-out: Growth assay PfNMT[WT] EC50
[15] = 3D7, read-out: Growth assay PfNMT[G386E] Clone 1 EC50
[16] = 3D7, read-out: Growth assay PfNMT[G386E] Clone 2 EC50

For Cc1nn(C)c(C)c1NS(=O)(=O)c1c(Cl)cc(-c2ccnc(N3CCNCC3)c2)cc1Cl [DDD85646, reference compound], the “nuclei at stalled pseudoschizont stage” value [1] is listed as 4–6 nuclei, the EC50 [2, 14] is listed as 69 nM and the EC50 [3, 15] is listed as 91 nM. The EC50 [3, 16] was 103 nM.
For Cc1nn(C)c(C)c1CCOc1cc(F)ccc1-c1ccc2c(c1)c(CN(C)C)nn2C [IMP-1002, 1-(5-(4-fluoro-2-(2-(1,3,5-trimethyl-1H-pyrazol-4-yl)ethoxy)phenyl)-1-methyl-1H-indazol-3-yl)-N,N-dimethylmethanamine], the “number of nuclei versus DMSO control, WT parasites” value (WT 3D7 parasites) was “reduced number of nuclei”, the “thermal stabilization (ΔTm) of PvNMT[G386E]” value (PvNMT[G386E] [4]; absence of MyrCoA) was 1.8 °C and the “ΔΔTm between PvNMT[WT] and PvNMT[G386E]” value (PvNMT[G386E] [4]; absence of MyrCoA (Table S4A), in favor of WT) was greater than 7.0 °C. For the same compound, the “dissociation rate with PvNMT[WT]” value (PvNMT[WT] [5]) was “slow dissociation rate”, the “IC50 ratio of G386E/WT on average” value (PvNMT[G386E] [6]) was 2.6 and the “Ratio PvNMT[G386E]/PvNMT[WT] IC50, Replicate 1” value (PvNMT[G386E] [6]) was 3.1. The “Ratio PvNMT[G386E]/PvNMT[WT] IC50, Replicate 2” value (PvNMT[G386E] [6]) was 3.4, the “Ratio PvNMT[G386E]/PvNMT[WT] IC50, Replicate 3” value (PvNMT[G386E] [6]) was 1.4 and the IC50 (PvNMT[G386E] [6]; PvNMT[G386E] IC50, Replicate 1) was 6 nM. For the same compound, the IC50 (PvNMT[G386E] [6]; PvNMT[G386E] IC50, Replicate 2) was 7.1 nM, the IC50 (PvNMT[G386E] [6]; PvNMT[G386E] IC50, Replicate 3) was 6.9 nM and the “YnMyr labeling in PfNMT[G386E] parasite clones” value [7] was “no reduction in labeling”. For the same compound, the “HsNMT2/PvNMT fold difference in IC50” value (HsNMT2) was 3.84, the “fold more potent in killing parasites than DDD85646” value [2] was 4 fold and the EC50 [2, 14] was 9.6 nM. The EC50 ([2]; 3D7 parasites, initial EC50 determination (Figures 2A, S2A), read-out: parasite growth EC50) was 34 nM, the “Ratio PfNMT[G386]/PfNMT[WT] EC50, Clone 1” value ([3]; EC50 of [G386E]/[WT], Clone 1) was 24 and the “Ratio PfNMT[G386]/PfNMT[WT] EC50, Clone 2” value ([3]; EC50 of [G386E]/[WT], Clone 2) was 21. For the same compound, the EC50 [3, 15] was 230 nM, the EC50 [3, 16] was 201 nM and the “number of nuclei versus DMSO control, PfNMT[G386E] parasites” value (PfNMT[G386E] parasites; 140 nM for 45 h from ring stage) was “no difference”. For the same compound, the inhibition at 0.14 µM (PfNMT[G386E] parasites; Plasmodium falciparum, read-out: inhibition of [G386E] parasites) was 0%, the “YnMyr labeling in WT parasites” value [8] was “clear decrease in YnMyr labeling” and the “decrease in affinity (KD PvNMT[G386E] / KD PvNMT[WT])” value (PvNMT[G386E] [9]) was “approximately 5 fold”. The “accumulation of NMT substrate GAP45” value [10] was “inhibiting accumulation”, the ΔTm at 5 µM (PvNMT[WT] [11]) was greater than 8.8 °C and the EC50 [12] was 35 nM. It also gave an EC50 ([12]; Plasmodium falciparum, DD2, 72 h) of 20.4 ± 4.9 nM, an EC50 ([13]; read-out: EC50 Clone 01) of 270 ± 40 nM and an EC50 ([13]; read-out: EC50 Clone 02) of 300 ± 140 nM. For the same compound, the EC50 ([13]; read-out: EC50 Clone 03) was 240 ± 63 nM, the EC50 ([13]; read-out: EC50 uncloned population) was 320 ± 50 nM and the “increase in EC50 of IMP-1002-resistant clones” value ([13]; resistant Dd2 clones versus Dd2 parental line) was 14 fold. The “HsNMT1/PvNMT fold difference in IC50” value (HsNMT1) was 2.32.
